For 88 compounds, EC50 results are on record in PubChem BioAssay AID816 (SRMLSC, 2007).

Activity calls are given as the source filed them. No rule for the calls is given here. Bounds are passed on as bounds.

As a reminder, the EC50 is the concentration giving half of the maximal effect.

The experiment concerns S. cerevisiae GAL1 promoter reporter activation counterscreen. The experiment can be described thus: GAL1 promoter activators in yeast, artefact control for yeast lifespan extension project, S. cerevisiae (AID 816).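 Also: yeast growth read after 24 h of incubation with compounds.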
As for `CC1=NN(Cc2ccccc2)C(=O)C1C(c1ccccc1)C(C#N)C#N` (stereo not drawn), the EC50 was > 40 µM (inactive).

For `CCOc1ccc(OCC(=O)c2c(O)c3ccccc3oc2=O)cc1`, the EC50 is > 40 µM (inactive).

As to `CCOc1ccc(C2=NNC(c3cccs3)=Nc3ccc(OCC)cc32)cc1`, the EC50 is > 40 µM (inactive).

In the case of `O=C(NC(=S)NNS(=O)(=O)c1ccccc1)c1ccc([N+](=O)[O-])cc1`, the EC50 was > 40 µM (inactive).

Take `O=C(Nc1cccnc1)c1c(O)c2cccc3c2n(c1=O)CC3`: the EC50 was > 40 µM (inactive).

Take `Oc1ccc2ccccc2c1C=Nc1ccccc1-c1nc2ccccc2[nH]1`: the EC50 is > 40 µM (inactive).

For the compound `O=c1c2c3c(sc2ncn1/N=C/c1ccc([N+](=O)[O-])o1)CCCC3`, the EC50 is > 40 µM (inactive).

Turning to `CCSc1nnc(NC(=O)CSc2nc(C)cc(C)n2)s1`, the EC50 is > 40 µM (inactive).

`CCCn1[nH]cc(SC)c(=O)c1=O`: the EC50 is > 40 µM (inactive).

With `Cc1cccc(N2C(=O)/C(=C\c3ccc(OC(F)F)cc3)c3ccccc3C2=O)c1`, the EC50 is > 40 µM (inactive).

Regarding `CC(=O)c1c(O)cc2n(c1=O)-c1ccc(Cl)cc1C2(C)C`, the EC50 was > 40 µM (inactive).

Consider `CCCCC(=Nc1ccccc1OC)C1=C(O)CC(c2ccccc2)CC1=O` (stereo not drawn), for which the EC50 was > 40 µM (inactive).

As to `COC(=O)c1sc2ncn(-n3c(C)ccc3C)c(=O)c2c1C`, the EC50 was > 40 µM (inactive).

Regarding `CCOC(=O)c1nnn(-c2nonc2N)c1CN1CCc2ccccc2C1`, the EC50 was > 40 µM (inactive).

Consider `N#CSCC(=O)N1c2ccccc2CCc2ccccc21`, for which the EC50 was > 40 µM (inactive).

Take `Cc1ccc(C(=O)C2C(=O)c3ccccc3C2=O)cc1`: the EC50 is > 40 µM (inactive).

As for `COc1ccc(/C=C(/C(=O)c2ccc(Cl)cc2Cl)n2cncn2)cc1`, the EC50 was > 40 µM (inactive).

`NC(=S)N/N=C/c1coc2cc(Cl)ccc2c1=O`: the EC50 is > 40 µM (inactive).

As to `CCC1C/C(=C\c2cccnc2)C(=O)/C(=C/c2cccnc2)C1` (stereo not drawn), the EC50 is > 40 µM (inactive).

For `CCCNC(=O)CCC(NS(=O)(=O)c1ccc(C)cc1)C(=O)NCCC` (stereo not drawn), the EC50 was > 40 µM (inactive).

Take `O=Cc1cccn1-c1sc2c(c1C(=O)O)CCCC2`: the EC50 was > 40 µM (inactive).

Take `c1ccc(-c2cc(N3CCOCC3)nc3ccccc23)cc1`: the EC50 was > 40 µM (inactive).

As for `Cc1nc2ccccc2n1-c1ccccc1`, the EC50 was > 40 µM (inactive).

With `O=C1/C(=C\c2cccnc2)CN(Cc2ccccc2)C/C1=C\c1cccnc1`, the EC50 is > 40 µM (inactive).

Turning to `O=[N+]([O-])c1cc2oc3c(c2c(C=NCc2ccccc2)c1O)CCCC3`, the EC50 was > 40 µM (inactive).

As for `COc1ccc(CNC(=O)c2c(O)c3cccc4c3n(c2=O)CCC4)cc1`, the EC50 was > 40 µM (inactive).

As for `CNC(=O)/C(C#N)=C/c1c(F)cccc1Cl`, the EC50 is > 40 µM (inactive).

Regarding `CCCC(=Nc1ccccc1)C1=C(O)C(C(=O)OC)C(C)(C)CC1=O` (stereo not drawn), the EC50 is > 40 µM (inactive).

`O=C(O)c1cccc2c1C(=O)N(C1CCCCC1)C2`: the EC50 was > 40 µM (inactive).

Take `Cn1nnnc1SCCNCC#Cc1ccccc1`: the EC50 is > 40 µM (inactive).

As for `Cc1cc(C)nc(SCc2cc(=O)c(OC(=O)c3ccco3)co2)n1`, the EC50 is > 40 µM (inactive).

For the compound `C=C(C)CN(CC)C(=O)COc1ccc(S(=O)(=O)Nc2ccc(OC)cc2)cc1`, the EC50 was > 40 µM (inactive).

As to `O=C(N/N=C/c1cccc(F)c1)c1c(O)c2ccccc2[nH]c1=O`, the EC50 is > 40 µM (inactive).

As to `COc1cc(/C=C/C(=O)c2c(O)cc(C)oc2=O)cc(OC)c1O`, the EC50 is > 40 µM (inactive).

With `O=C1CC(c2ccccc2)CC(O)=C1C=NCCN1CCN(C(=O)Nc2ccccc2)CC1` (stereo not drawn), the EC50 is > 40 µM (inactive).

As to `CC1(C)Cc2ccccc2-c2nnc(SCC(=O)Nc3ccc4c(c3)OCO4)n21`, the EC50 is > 40 µM (inactive).

With `O=C(COc1ccc([N+](=O)[O-])cc1)N(Cc1ccccc1)Cc1ccccc1`, the EC50 is > 40 µM (inactive).

Consider `Cc1ccc(N2NC(=O)/C(=C\c3cc4c(cc3[N+](=O)[O-])OCO4)C2=O)cc1C`, for which the EC50 is > 40 µM (inactive).

With `COc1ccc(/C(O)=C/C(=O)C(=O)Nc2c(C)n(C)n(-c3ccccc3)c2=O)cc1`, the EC50 was > 40 µM (inactive).

For the compound `CSC1=NSC2=NC(=O)/C(=C\c3cccs3)C(=N)N12`, the EC50 was > 40 µM (inactive).

Take `CC(=O)Nc1c(O)nc(SCc2ccccc2C#N)[nH]c1=O`: the EC50 is > 40 µM (inactive).

For `CN(Cc1c(O)ccc2c1oc(=O)c1ccccc12)C1CCCCC1`, the EC50 is > 40 µM (inactive).

Regarding `CCOC(=O)/C(=C/c1ccc(OC(=O)c2ccccc2)cc1)C(C)=O`, the EC50 was > 40 µM (inactive).

As for `O=C(CCN1CCCCCC1)Nc1ccc(F)cc1`, the EC50 was > 40 µM (inactive).

Take `CC(C)(C)OC(=O)[C@H]1[C@H](c2ccc([N+](=O)[O-])cc2)C2(C(=O)c3ccccc3C2=O)C2c3ccccc3C=NN21` (stereo partly drawn): the EC50 is > 40 µM (inactive).

For `CCOC(=O)c1c(C)oc2c1c(C(c1cccnc1)N1CCCCC1)c(O)c1ccccc12` (stereo not drawn), the EC50 was > 40 µM (inactive).

For `O=C1C=CCC(/C=C/c2ccccc2)O1` (stereo not drawn), the EC50 is > 40 µM (inactive).

For `Cc1c(O)c(S(=O)c2ccccc2)c(=O)n(-c2ccccc2)c1-c1ccccc1` (stereo not drawn), the EC50 is > 40 µM (inactive).

`O=C1CC(c2ccccc2)CC(O)=C1C=NCCN1CCNCC1` (stereo not drawn): the EC50 is > 40 µM (inactive).

Consider `CC(C)OCCCNS(=O)(=O)c1ccc2ccccc2c1`, for which the EC50 was > 40 µM (inactive).

For the compound `CCOC(=O)C1=C(C)Nc2nc(=S)[nH]n2C1c1ccc(Cl)cc1` (stereo not drawn), the EC50 is > 40 µM (inactive).

Regarding `Cc1ccc(Oc2nc3ccccc3n3c(C)nnc23)c(C)c1`, the EC50 was > 40 µM (inactive).

`Cc1nonc1NC(=O)CSc1nc(C2CCCCC2)nc2ccccc12`: the EC50 was > 40 µM (inactive).

Consider `COc1ccccc1-c1c(C)oc2cc(OC(=O)c3ccco3)ccc2c1=O`, for which the EC50 is > 40 µM (inactive).

Turning to `COc1cccc(C(=O)Oc2cc(N)n(S(=O)(=O)c3ccc(C)cc3)n2)c1OC`, the EC50 is > 40 µM (inactive).

Turning to `CC(C)C(C(=O)O)N1C(=O)/C(=C/c2cccn2C)SC1=S` (stereo not drawn), the EC50 is > 40 µM (inactive).

On to `COC(=O)c1cc(=O)n(-c2ccccc2)c(=Nc2ccccc2)s1`, for which the EC50 was > 40 µM (inactive).

`Cc1ccc(C(=O)c2no[n+]([O-])c2C(=O)c2ccc(C)cc2)cc1`: the EC50 was > 40 µM (inactive).

As for `Cc1ccnc(-n2c(C)cc(/C=C3\C(=O)NC(=S)N(C)C3=O)c2C)c1`, the EC50 is > 40 µM (inactive).

As to `O=C1ON=C(c2ccccc2)/C1=C/c1ccc(-c2ccccc2[N+](=O)[O-])o1`, the EC50 was > 40 µM (inactive).

Take `COc1ccc(C(=O)C(CN2CCOCC2)c2ccccc2)cc1F` (stereo not drawn): the EC50 was > 40 µM (inactive).

With `CCOC(=O)c1ccccc1N1C(=O)CSC1=S`, the EC50 was > 40 µM (inactive).

In the case of `CC(=NCCc1c(C)[nH]c2ccc(C)cc12)C1=C(O)CC(c2ccccc2)CC1=O` (stereo not drawn), the EC50 is > 40 µM (inactive).

As for `COc1ccc(CN2CCN(C(=O)COc3cccc(C)c3)CC2)c(OC)c1`, the EC50 was > 40 µM (inactive).

On to `CCCn1c(C)cc(C(=O)COc2ncnc3sccc23)c1C`, for which the EC50 was > 40 µM (inactive).

As to `CC(=C1C(=O)c2ccccc2C1=O)N1CCN(c2ccccn2)CC1`, the EC50 was > 40 µM (inactive).

Take `O=C(CS(=O)c1ccc(C(F)(F)F)cc1[N+](=O)[O-])Oc1ccccc1` (stereo not drawn): the EC50 is > 40 µM (inactive).

As to `CCOC(=O)C1Cc2cc3c(cc2C1=O)CC(C(=O)OCC)C3=O` (stereo not drawn), the EC50 was > 40 µM (inactive).

In the case of `O=C(N/N=C/c1ccc(F)cc1)c1c(O)c2ccccc2[nH]c1=O`, the EC50 is > 40 µM (inactive).

Consider `O=CN(/C=C1\Sc2ccccc2C1=O)Cc1ccccc1`, for which the EC50 is > 40 µM (inactive).

As for `O=Cc1cc2ccccc2nc1SCc1ccc(Cl)cc1`, the EC50 was > 40 µM (inactive).

Take `COc1ccccc1C(=O)Oc1cc(N)n(S(=O)(=O)c2ccc(C)cc2)n1`: the EC50 was > 40 µM (inactive).

Turning to `Cc1ccc(S(=O)(=O)Nc2ccccc2/C=N/c2nc3ccccc3n2C(C)C)cc1`, the EC50 was > 40 µM (inactive).

As to `Cc1ccc(-c2ccc(/C=C3\C(=O)ON=C3c3ccccc3)o2)c([N+](=O)[O-])c1`, the EC50 was > 40 µM (inactive).

Consider `CCOC(=O)c1c(NC(=O)C2C3C=CC(C3)C2C(=O)O)sc2c1CCC(CC)C2` (stereo not drawn), for which the EC50 is > 40 µM (inactive).

In the case of `CCOc1cc(Br)c(Br)c(C=Nc2ccc(NC(C)=O)cc2)c1O`, the EC50 was > 40 µM (inactive).

In the case of `COCCOC(=O)/C(=C/c1ccc(OC(=O)c2ccccc2)cc1)C(C)=O`, the EC50 is > 40 µM (inactive).

With `COc1cc(OC)cc(-c2nc3ccccc3c(=O)n2OC(=O)c2ccc(C)c(C)c2)c1`, the EC50 was > 40 µM (inactive).

With `CC1CC(C)CN(S(=O)(=O)c2cccc(C(=O)N3C(=O)c4cccc(N)c4C3=O)c2)C1` (stereo not drawn), the EC50 is > 40 µM (inactive).

Regarding `O=C(Cn1nc(Cl)nc1Cl)c1cc2ccccc2oc1=O`, the EC50 is > 40 µM (inactive).

For the compound `Cc1ccc(C(C2=C(O)CC(C)(C)CC2=O)C2C(=O)CC(C)(C)CC2=O)o1` (stereo not drawn), the EC50 was > 40 µM (inactive).

`CC(c1ccccc1)N1CCn2c(nc3cc(NC(=O)c4cccs4)ccc32)C1` (stereo not drawn): the EC50 was > 40 µM (inactive).

Regarding `Cc1nc(SC(C)C)[nH]c(=O)c1Cc1ccccc1`, the EC50 was > 40 µM (inactive).

On to `Cc1ccc2[nH]c3c(c2c1)CC/C(=C/c1ccccc1)C3=O`, for which the EC50 was > 40 µM (inactive).

For the compound `COC(=O)C1=C(N)OC2=C(C(=O)CC(C)(C)C2)C1c1cccs1` (stereo not drawn), the EC50 was > 40 µM (inactive).

In the case of `CC1=CN2C(=N)/C(=C/c3ccc([N+](=O)[O-])o3)C(=O)N=C2S1`, the EC50 was > 40 µM (inactive).

As to `O=C(Oc1ccc2c(c1)OCO2)C12CC3CC(CC(C3)C1)C2`, the EC50 was > 40 µM (inactive).

For the compound `CCOc1ccc(C(=O)C(CN2CCOCC2)c2ccccc2)cc1` (stereo not drawn), the EC50 was > 40 µM (inactive).
